According to patent EP4410284A1, “COMPOUND AND METHOD FOR THE TREATMENT OF ZELLWEGER SPECTRUM DISORDER” (Apteeus, priority 2023, dated 2024):
Counter-ions that a name gives are not always drawn. Like-named read-outs stand apart in the source and are kept apart here.

Assays:
GM16513 cells [1] = assay: Catalase import immunofluorescence, high-content screening (% importing cells); assay type: cell-based, human; details: GM16513 cells, 3 days; for EC50 / Emax: Homo sapiens, 72 h, dose response with 6 concentrations; for EC50: read-out: EC50; for Emax: read-out: Max Efficacy (% Importing cells)
Description: (§7) Primary fibroblasts were seeded at 500-700 cells per well in 384-well plates and grown at 37°C overnight. Cells were treated with test compounds or 0.1% DMSO for 3 days. After 3 days and a wash with PBS, cells were fixed with 4% paraformaldehyde (Electron Microscopy Sciences) in PBS for 20 minutes. After 3 washes with PBS, the cells were permeabilized and blocked with 0.3% Triton X-100, 1% BSA in PBS for 30 minutes at room temperature followed by 3 washes with 1% BSA in PBS. The cells were incubated with a rabbit Catalase polyclonal antibody (#12980 Cell signaling) overnight at 4°C. Following 3 washes with PBS containing 0.1% Tween-20, the cells were incubated for 1 h at room temperature with a conjugated goat anti-rabbit secondary antibody Alexa Fluor 647 (Ab150083-Abcam). The cells were then washed 3 times with PBS and Hoechst 33342 (H3570-ThermoFisher Scientific) + HCS Cellmask Blue (H32720 - ThermoFisher Scientific) staining was performed at 0.1 µg/ml and 0.4 µg/mL respectively for 30 minutes at room temperature. The cells were finally washed 3 times with PBS and fluorescent images were acquired using the INCell Analyzer 6000 imaging platform (GE Healthcare Life Sciences).
Images analysis was done using Columbus analysis software (PerkinElmer). DAPI channel was used to find nuclei (Hoechst 33342) and cytoplasm (HCS CellMask Blue) and border objects were removed. Cy5 channel (AlexaFluor 647) was used to find spots corresponding to peroxisomes which correctly import catalase. […] The number of importing or non-importing cells was calculated. Finally, results were expressed as % of importing cells.
(§8) The cytotoxicity was assessed in parallel using a double nucleus staining with Hoechst 33342 and Propidium Iodide (PI).
The EC50 and maximum efficacy of these inhibitors were determined.

GM16513 cells [2] = assay type: cell-based; details: 3 days, PI positive cells (dead cells)
Description: Images were acquired using the EnSight multimode plate reader (PerkinElmer) and analysis was done using Columbus analysis software (PerkinElmer). […] Then the total number of cells and the % of dead cells was calculated.
All HDAC inhibitors were tested at 1.3 and 10 µM for 3 days on GM16513 and PEX405 cells.

PEX405 cells [3] = assay: Catalase import immunofluorescence, high-content screening (% importing cells); assay type: cell-based, human; details: for Concentration (lower dose leading to the maximum effect) / Importing cells (%): PEX405 (PEX1); for Importing cells (%): at the lower dose leading to the maximum effect (see E12); for % Importing cells: PEX405 cells, 3 days
Description: as §7
Images analysis was done using Columbus analysis software (PerkinElmer). DAPI channel was used to find nuclei (Hoechst 33342) and cytoplasm (HCS CellMask Blue) and border objects were removed. Cy5 channel (AlexaFluor 647) was used to find spots corresponding to peroxisomes which correctly import catalase. Cells were classified as importing or non-importing cells using a linear classifier method after training with images of wells containing Healthy cells and PEX1 deficient cells. The number of importing or non-importing cells was calculated. Finally, results were expressed as % of importing cells.
as §8

GM16513 cells [4] = assay: Beta-oxidation of d4-C24:0 (LC-MS/MS); assay type: cell-based, human
Description: (§1) Degradation (to d4-C16:0) and elongation (to d4-C26:0 and d4-C28:0) of d4-VLCFA (very long chain fatty acid) in the cells was measured using d4-C24:0 as substrate (D-6145-CDN isotopes). D4-C24:0 was solubilized in culture medium using α-cyclodetrin, with a molar ratio of d4-C24:0:α-cyclodextrin 1:50. Cyclodextrins, which are cyclic oligosaccharides, are commonly used to solubilize fatty acids by complexation, for supplementation of cell culture media, and serve as vehicle to deliver fatty acids to the cells. Cyclodextrins have a polar surface and a hydrophobic cylindrical cavity that can bind and solubilize a wide variety of hydrophobic molecules, such as fatty acids, while remaining soluble in water. The assay was performed in T75 culture flasks for 3 or 10 days. The medium was replaced by fresh medium every 2-3 days and supplemented with d4-C24:0 for the last 3 days. After 3 or 10 days, cells were harvested and lysated in water (100-200 µL) by freeze/thaw cycle and sonication for 5 min. Total proteins were quantified using BCA assay and 100 µg of total proteins were used for each sample.
(§2) After cell lysis, the samples were dried using a rotating evaporator (Genevac EZ-2, SP Scientific), set at 40°C for 2h under vacuum. After evaporation, a hydrolysis mix consisting of 90% acetonitrile and 10% NaOH 1N in water was added to the samples. The samples were incubated for 1h at room temperature under stirring (300 rpm). After hydrolysis, the samples were evaporated using a Genevac device, under vacuum, at 40°C for 2h.
(§3) Derivation of free fatty acids was done using a 2.5 mg/mL Na2CO3 solution in DMF and a 2.5 mg/mL TMAE (trimethylammoniumethyl) reagent solution in DMF. The solutions were mixed in a 1:1 ratio, and 200 µL of the mix was added to dry samples to be derived. For the derivation, the samples were incubated for 3h at 50°C. DMF was then evaporated using a Genevac™ device, under vacuum, at 60°C for 4h.
(§4) Before injection, the samples were solubilized in a 90/10 acetonitrile/isopropanol mixture with 1% HCl. After solubilization, the samples were stirred and centrifuged at 4000 rpm for 20 min at 10°C.
(§5) For the separation of the derived fatty acids by liquid chromatography, a Waters Acquity ultra-performance liquid chromatography (UPLC) system (Acquity I-Class, Waters) was used. […]
(§6) After separation by liquid chromatography, the analytes were subjected to MS analysis using a Waters Xevo TQSmicro system (Waters). […] The molecules were analyzed using MRM (multiple reaction monitoring) mode, with the main daughter ion for each derived fatty acid corresponding to the loss of a trimethylammonium moiety (m/z 59). Derived FAs with a chain length from 16 to 28, with no or one unsaturation, were analyzed. […] The acquired data were analyzed by the Waters MassLynx software.

PEX405 cells [5] = assay: Beta-oxidation of d4-C24:0 (LC-MS/MS); assay type: cell-based, human; details: 3 days of treatment, dose response manner
Description: as §1, §2, §3, §4, §5, §6

PEX405 cells [6] = assay: Plasmalogens synthesis (LC-MS/MS); assay type: cell-based, human; details: treatment over 3 days
Description: The assay was performed in T75 culture flasks for 3 or 10 days. The medium was replaced by fresh medium every 2-3 days. After 3 or 10 days, the cells were harvested and lysated in water (100-200 µL) by freeze/thaw cycle and sonication for 5 min. Total proteins were quantified using BCA assay and 100 µg of total proteins were used for each sample.
After cell lysis, the samples were dried using a rotating evaporator (Genevac EZ-2, SP Scientific), set at 40°C for 2h under vacuum. Then a solution containing water/acetonitrile 20/80 v/v was added to the wells. Before analysis, the samples were centrifuged at 4000 rpm for 20 min at room temperature. For the separation of plasmalogens by liquid chromatography, a Waters Acquity ultra-performance liquid chromatography (UPLC) system (Acquity I-Class, Waters) was used. A Waters Acquity UPLC BEH (Ethylene Bridged Hybrid) C8 column (2.1 × 50mm, particle size 1.7 µm, pore size 130 A, 2.1mm inner diameter) preceded by a metal pre-filter (KrudKatcher Ultra HPLC In-Line Filter, AF0-8497, Phenomenex) was used for separation. The column temperature was maintained at 50°C. The injection volume was 5µL for each analysis. The mobile phase A was composed of water + 0.1% formic acid and the mobile phase B was methanol + 0.1% formic acid. The separation was done using a gradient, with a flow rate set at 0.7 mL/min throughout the separation:
During analysis, the samples were kept at 10°C, and 5 µL of each sample were injected. After separation by liquid chromatography, the analytes were subjected to MS/MS analysis using a Waters Xevo TQSmicro system (Waters). The analytes were ionized using positive electrospray ionization (positive ESI). The molecules were analyzed using MRM mode. The analyzed plasmalogens contained moieties with C16:0, C18:0, C18:1 at the sn-1 position and fatty acid of chain-length 18 to 24 with 1 to 6 unsaturations at the sn-2 position. […] The cellular levels of plasmalogens were calculated using the area of each plasmalogen divided by protein quantity. […] The acquired data were analyzed by the Waters MassLynx software.

[7] = 0.5 µM for 3 or 10 days, compared to non-treated cells

SMILES | % Importing cells (GM16513 cells [1]; 1.3 µM) [%] | % Importing cells (GM16513 cells [1]; 10 µM) [%] | EC50 (GM16513 cells [1]) [µM] | Emax (GM16513 cells [1]) [%] | % PI+ cells (GM16513 cells [2]; 1.3 µM) [%] | % PI+ cells (GM16513 cells [2]; 10 µM) [%] | Concentration (lower dose leading to the maximum effect) (PEX405 cells [3]) [µM] | Importing cells (%) (PEX405 cells [3]) | % Importing cells (PEX405 cells [3]; 1.3 µM) [%] | % Importing cells (PEX405 cells [3]; 10 µM) [%] | relative d4-VLCFA levels (C26, C28) (GM16513 cells [4]; [7]) | shortest d4-FA (C16, C18) levels (GM16513 cells [4]; [7]) | d4-C16,C18,C20 and C22 levels (GM16513 cells [4]; 3 days of treatment, dose response manner) | d4-C16,C18,C20 and C22 levels (PEX405 cells [5]) | plasmalogen levels (PEX405 cells [6])
O=C(/C=C/c1cccc(S(=O)(=O)Nc2ccccc2)c1)NO [Belinostat] | 95 | 97 | 0.2 | 98 | 4 | 21 | 2.5 | 41 | 52 | 27 | decrease | increase |  |  | 
CCN(CC)Cc1ccc2cc(COC(=O)Nc3ccc(C(=O)NO)cc3)ccc2c1 [Givinostat (hydrochloride monohydrate), Givinostat] | 81 | 32 | 0.17 | 80 | 6 | 29 | 0.25 | 13 | 12 | 6 |  |  | increase | increase | increased
